One experiment concerns the target T1, Kv4.2 V285A (Homo sapiens, UniProt Q9NZV8, V285A).
T1 construct: expressed in transfected cells; host or cells: HEK293T
T1 sequence (Q9NZV8 1-630 V285A): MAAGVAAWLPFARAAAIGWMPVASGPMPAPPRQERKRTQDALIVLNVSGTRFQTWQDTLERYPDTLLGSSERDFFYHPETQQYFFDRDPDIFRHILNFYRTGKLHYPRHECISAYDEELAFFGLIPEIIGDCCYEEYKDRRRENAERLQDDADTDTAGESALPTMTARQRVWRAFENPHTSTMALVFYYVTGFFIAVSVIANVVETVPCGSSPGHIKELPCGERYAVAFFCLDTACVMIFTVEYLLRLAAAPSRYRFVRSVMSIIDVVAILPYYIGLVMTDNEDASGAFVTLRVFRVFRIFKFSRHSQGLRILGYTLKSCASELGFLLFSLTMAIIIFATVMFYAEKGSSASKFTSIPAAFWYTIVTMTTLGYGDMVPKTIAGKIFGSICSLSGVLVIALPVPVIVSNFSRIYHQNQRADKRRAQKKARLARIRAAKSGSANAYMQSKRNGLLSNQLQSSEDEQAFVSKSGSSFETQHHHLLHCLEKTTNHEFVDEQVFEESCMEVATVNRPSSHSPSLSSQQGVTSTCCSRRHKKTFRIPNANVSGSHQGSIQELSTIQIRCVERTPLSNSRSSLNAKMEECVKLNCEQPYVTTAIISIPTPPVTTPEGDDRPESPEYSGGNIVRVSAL
T1 sequence (Q9NS61 1-270 partner): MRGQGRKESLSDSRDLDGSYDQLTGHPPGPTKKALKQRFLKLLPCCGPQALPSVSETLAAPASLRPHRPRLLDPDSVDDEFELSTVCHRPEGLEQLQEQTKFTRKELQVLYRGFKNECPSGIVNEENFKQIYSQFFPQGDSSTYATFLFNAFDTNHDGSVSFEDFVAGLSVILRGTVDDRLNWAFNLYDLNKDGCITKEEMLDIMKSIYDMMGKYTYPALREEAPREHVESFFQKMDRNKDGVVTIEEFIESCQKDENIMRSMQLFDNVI
As to the kind of experiment: Patch clamp of Kv4.2 mutant V285A in HEK293T cells. It is filed as cell-based. A general note: The patch-clamp technique gives a direct electrical read-out from membranes.

A further experiment concerns the target T2, Kv4.2 F289A (Homo sapiens, UniProt Q9NZV8, F289A).
T2 construct: expressed in transfected cells; host or cells: HEK293T
T2 sequence (Q9NZV8 1-630 F289A): T1 sequence (Q9NZV8 1-630 V285A) with A285V, F289A
T2 sequence (Q9NS61 1-270 partner): T1 sequence (Q9NS61 1-270 partner)
Description: Patch clamp of Kv4.2 mutant F289A in HEK293T cells. The class given is cell-based.

A further experiment deals with Kv4.2 L277A. As to the kind of experiment: Patch clamp of Kv4.2 mutant L277A in HEK293T cells. It is filed as cell-based. The text has this:
All data points are shown as mean SEM.

For another experiment, the system named is kv2.1. Particulars: 5µM, X. laevis oocytes; cited from earlier work. The text has this:
Supplement Data_Sheet_1.docx, table 1: Supplementary Table 1.Activity of spider toxins on Kv2 and Kv4 channel subtypes Activities of spider toxins against different subtypes of Kv2 and Kv4 potassium channels are reported as IC50 (nanomolar) or as percentage of current inhibition at a single dose (nanomolar). Affinity (IC50) measurements | column: kv2.1 || Animal toxins target ion channels, and are thus valuable resources with potential therapeutic applications. The Kv4 subfamily from scorpion ([Maffie et al., 2013]; [Xie et al., 2014]) and spider venom ([Escoubas et al., 2002]; [Ebbinghaus et al., 2004]; [Yuan et al., 2007], [2012]; [DeSimone et al., 2009]) has a rich toxin pharmacology. HaTx, originally isolated from venom of the Chilean rose tarantula (Grammostola spatulata), inhibits Kv4.2 channels effectively, with similar affinity for Kv2.1 ([Swartz and MacKinnon, 1995]; [Swartz, 2007]). Other Kv4 channel inhibitors, Stromatoxin (ScTx1) fr ...

Data on 1 compound can be found in PMC6476928 (Frontiers in Pharmacology, 2019).

Changes are numbered by the printed parent chain.

Description for Kv4.2 F289A: (§1) Human embryonic kidney cell line (HEK293T) was obtained from Shanghai Institute of Cell Biology, Chinese Academy of Sciences (Shanghai, China) and maintained with 5% CO2 at 37°C in DMEM supplemented with 10% heat-inactivated fetal calf and serum (FBS), penicillin (100 U/ml), and streptomycin (100 μg/ml). The WT/mutant Kv4.2 plasmids were transiently transfected into HEK293T by Lipofectamine^TM 2000 Reagent (Invitrogen), and the KChIP2 subunits were co-transfected with Kv4.2.
(§2) The extracellular buffer and pipette solution for AP, Ito, and Kv4.2 were used as follows.
(§3) Kv4.2 current, The pipette solution contained (mM) 140 KF, 5 ATP-2Na, 1 EGTA, and 10 HEPEs (pH = 7.4). […] The steady-state activation of Kv4.2 was measured with the holding potential −80 mV and applied from −80 mV to 70 mV (10-mV increments). Steady-state inactivation of Kv4.2 channel measured with a series of a 300-ms depolarizing test potential of 10 mV followed a 1000-ms prepulse at potentials ranging from −120 to +70 mV with a 5-mV increment.
(§4) Data were analyzed using the clampfit (Axon) and Origin 9 software programs. […] The steady-state activation relationship was measured using Boltzmann function (f(V) = 1/{1 + exp[−(V−V1/2)/k]}^4). Steady-state inactivation was measured using the Boltzmann function f(V) = 1/{1 + exp[−(V − V1/2)/k]}.
Description for Kv4.2 V285A: as §1, §2, §3, §4

Consider `CC[C@H](C)[C@H](NC(=O)[C@@H](NC(=O)[C@H](CCCCN)NC(=O)[C@H](CCCNC(=N)N)NC(=O)[C@@H]1CSSC[C@@H]2NC(=O)[C@H](C)NC(=O)[C@H](CCCNC(=N)N)NC(=O)[C@H](CCCCN)NC(=O)[C@H](CO)NC(=O)[C@H](CC(=O)O)NC(=O)[C@@H]3CSSC[C@H](NC(=O)[C@H](CCCNC(=N)N)NC(=O)[C@H](CC(C)C)NC(=O)CNC(=O)[C@H](CCC(=O)O)NC(=O)[C@H](CSSC[C@H](NC(=O)[C@@H](N)Cc4ccc(O)cc4)C(=O)N[C@@H](CCC(N)=O)C(=O)N[C@@H](CCCCN)C(=O)N[C@@H](Cc4c[nH]c5ccccc45)C(=O)N[C@@H](CCSC)C(=O)N[C@@H](Cc4c[nH]c5ccccc45)C(=O)N[C@@H]([C@@H](C)O)C(=O)N3)NC2=O)C(=O)N[C@@H](CCCCN)C(=O)N[C@@H](CC(C)C)C(=O)N[C@@H](Cc2c[nH]c3ccccc23)C(=O)N1)[C@@H](C)CC)C(=O)O` [JZTX-V, Jingzhaotoxin-V], for which the “reduction of sensitivity to the toxin vs WT Kv4.2” value on Kv4.2 V285A is listed as around 7 fold; at Kv4.2 F289A, around 11 fold. The “increase of affinity for JZTX-V vs WT Kv4.2” value in the experiment on Kv4.2 L277A was around 20 fold. The “percentage of current inhibition kv2.1” value in the experiment on kv2.1 is listed as 35% (5µM) O.
